Experiment: Pharmacokinetic parameters after oral gavage in Sprague Dawley rats
Assay type: in vivo, male Sprague Dawley rats
Details: rat, 10 mg/kg
Protocol: The in vivo pharmacokinetic parameters of mesoporous silica (AMS-6) loaded with probucol (34.8 wt %) prepared according to the procedure as described in Example 1, were obtained after oral gavage to male Sprague Dawley rats at a dose of 10 mg/kg. Crystalline probucol (PB) was administered in comparison. […] Further, the maximum concentration of probucol after administration of silica loaded with probucol is approximately 10 times higher than when crystalline probucol is administered.

CC(C)(Sc1cc(C(C)(C)C)c(O)c(C(C)(C)C)c1)Sc1cc(C(C)(C)C)c(O)c(C(C)(C)C)c1 [PB, Probucol]
AUC(0-inf) (male, Sprague Dawley, plasma): 859 ng·h/mL
Cmax (male, Sprague Dawley, plasma): 30.9 ng/mL
Tmax (male, Sprague Dawley, plasma): 8 h
half-life (male, Sprague Dawley, plasma): 19.6 h
AUC(0-t) (male, Sprague Dawley, plasma, read-out: AUC0-24): 492 ng·h/mL
Tlast: 24 h
